Data: patent US9426996B2, “Use of benzoxaboroles as volatile antimicrobial agents on meats, plants, or plant parts” (AgroFresh Inc., priority 2013, dated 2016)

Legend:
Alternaria alternata [1] = experiment: combination treatment with 1-MCP on broccoli; type: in vivo; set-up: scale not given here; details: 1-MCP alone, 21° C.
Description: To evaluate a combination treatment of Compound A with 1-methylcyclopropene (1-MCP), an in vivo experiment is performed on broccoli.
Broccoli flowers are inoculated with 1×10^6 spores/mL of Alternaria alternata and then placed in a 117 L Rubbermaid storage box (Cat #2244) with two small fans placed in opposite ends of the container. A 500 ppb v/v 1-MCP treatment is applied (AgroFresh, Springhouse, Pa.) for 24 hours at 1° C. After completion of the 1-MCP treatment, broccoli florets are removed and placed in a 10.8-cup SnapWare airtight container (Model #109842). Compound A powder is applied in a dose dependent manner to achieve a final headspace concentration of 2 or 0.4 mg/L with a sublimation device (copper tube heated to 200° C. with fan flow at 0.5 L/min), with the end of the tube penetrating through a ½ inch side port in the container that is sealed immediately after the application. The florets are incubated for five days at 10° C. or three days at 21° C., then evaluated for an additional five days at 21° C. for disease incidence and severity.

Alternaria alternata [2] = experiment: combination treatment with 1-MCP on broccoli; type: in vivo; set-up: scale not given here; details: 1-MCP alone, 11 C.
Botrytis cinerea [3] = experiment: combination treatment with 1-MCP on white roses; type: in vivo; details: 1-MCP 500 ppb v/v for 24 hours, no Compound A
Description: To evaluate a combination treatment of Compound A with 1-methylcyclopropene (1-MCP), an in vivo experiment is performed on white roses.
Five white roses are placed in an 800 mL jar containing 200 mL of a common commercial flower preservative. Three jars are then placed in a 117 L Rubbermaid storage box (Cat #2244). Two small fans are placed in opposite ends of the container to assist with the distribution of the two volatiles. A 500 parts per billion (ppb) volume per volume (v/v) 1-MCP treatment is applied (AgroFresh, Springhouse, Pa.) for 24 hours at 21° C. After the 1-MCP treatment is completed, the containers are vented, and Compound A powder is applied in a dose dependent manner to achieve a final headspace concentration of 0.2, 0.04, or 0.008 mg/L with a sublimation device (copper tube heated to 200° C. with fan flow at 0.5 L/min), with the end of the tube penetrating through a ½ inch side port in the container that is sealed immediately after the application. The flowers are incubated for three days at 21° C. After treatment, the flowers are evaluated for an additional seven days at 21° C. for disease incidence and severity of the flower petals.

Alternaria alternata [4] = experiment: combination treatment with 1-MCP on tomato; type: in vivo; details: tomatoes; 1-MCP 1000 ppb v/v alone
Description: Each tomato fruit is wounded three times and inoculated with 1×10^6 spores/mL of Alternaria alternata and then placed in a 117 L Rubbermaid storage box (Cat #2244) with two small fans placed in opposite ends of the container. A 1000 ppb v/v 1-MCP treatment is applied (AgroFresh, Springhouse, Pa.) for 24 hours at 21° C. After completion of the 1-MCP treatment, the tomatoes are removed and placed in a 10.8-cup […] airtight container (Model #109842). […] The tomatoes are incubated for three days at 21° C., then evaluated for an additional three days at 21° C. for disease incidence and severity. Results listed in Table 29 show good activity against Alternaria alternata infection of tomato.

Penicillium digitatum [5] = experiment: in vivo sublimation bioassay on fruit, 1 mg/L (Example 31)
Description: (§1) To assess the in vivo activity of volatile antimicrobial Compounds A and B (FIG. 1) in fruit, a volatile bioassay is developed using apple, pear, orange, strawberry, grape and blueberry.
(§2) Two apples, 2 oranges, 2 pears, 8 strawberries, 16 grapes or 30 blueberries (per replicate, in duplicate) are placed in a clamshell with the stem end facing up for all fruits except for strawberry (stem end facing downwards). A fresh wound is inoculated with 20 μL 1×10^6 per mL Penicillium expansum spore suspension (apple and pear), 20 μL 1×10^6 per mL Penicillium digitatum spore suspension (orange), and 20 μL (strawberry and grape) or 10 μL (blueberry) of 1×10^6 per mL Botrytis cinerea spore suspension. The clamshells are placed inside a 117 L Rubbermaid storage box (Cat #2244) with lids closed. […] After treatment, fruits are held for an additional three days at 21° C., then evaluated for disease incidence (mm diameter of browning or water-soaked lesions) and pathogen sporulation (mm diameter) for apple, pear and orange, as well as Botrytis cinerea disease incidence (%) and severity (0 to 4) for strawberry, grape and blueberry, with results summarized in Table 30.

Penicillium expansum = experiment: as above; details: 1 mg/L sublimed, three day treatment plus three days at 21° C.
Description: as §1, §2

Botrytis cinerea [6] = experiment: as above; details: for Incidence (%) / Severity (0-4): 1 mg/L sublimed, three day treatment plus three days at 21° C.
Description: as §1, §2

Botrytis cinerea [7] = experiment: in vitro inhibition assay for volatile antimicrobial compounds (12-well PDA plates); type: cell-based; details: in vitro; volatile; 14 days at 4° C.
Description: 12-Well (7 milliliter (mL volume per well) microtiter plates are used for the in vitro inhibition assay for volatile antimicrobial compounds. A 3-mL volume of full-strength Potato Dextrose Agar (PDA) is added to each well. After cooling, 1 microliter (μL) of 1×10^6 per mL Botrytis cinerea spore suspension is spot pipetted to the center of the agar. For the first experiment, inoculated plates are allowed to germinate for 5 days at 4° C. For the second experiment, plates are inoculated immediately prior to volatile fungicide treatment. Small Whatman #1 filter disks (Cat. No. 1001-0155) are placed, in duplicate, on the underside of a polyethylene PCR plate sealing film.
The acetone is permitted to evaporate for 5 minutes. The headspace around the Botrytis cinerea inoculum is then sealed inside the well by the film with the adhering disk containing the fungicide. Plates are inverted, placed over the treated disks and sealed to prevent any of the chemical from flaking from the disk and falling onto the inoculated agar. After 14 days of storage at 4° C., cultures are evaluated for percent growth relative to control. Regardless of whether the spores had germinated for 5 days, or if the treatment commenced soon after inoculation of the plates (˜15 minutes); there is 100% control of the fungal pathogen down to 0.005 mg.
A total of 14 antimicrobial compounds are tested using the in vitro inhibition assay described in Example 1. All 14 compounds are applied to the Whatman disks, in duplicate, in a dose dependent manner (0.31 to 0.0006 mg/disk). […] Other compounds, such as Compound C, Compound D, and Compound E conferred 100% control down to 0.023, 0.04, and 0.08 mg/disk, respectively. Results of nine compounds are summarized in Table 2, where the other five compounds show no detected activity in the ranges tested. […]

Botrytis cinerea [8] = experiment: in vivo volatile bioassay using strawberry
Description: In order to assess the in vivo activity of volatile antimicrobial compounds, a volatile bioassay is developed using strawberry. Two fruit are placed inside a 240 mL jar, with the calyx facing downwards. […] The acetone is permitted to evaporate for 5 minutes. The jars are then capped with the lids containing the fungicide, and placed for 5 days at 21° C. After storage, fruit are evaluated for incidence and severity of disease and appearance of phytotoxicity.

Penicillium digitatum [9] = experiment: in vivo volatile bioassay using orange (Compound B, sublimation); details: for Sporulation (mm) / Water soaked lesions (mm): oranges
Description: Two oranges per replicate are placed inside a clamshell. Three fresh wounds per orange are inoculated with 30 μL of 1×10^6 per mL Penicillium digitatum spore suspension. The clamshells are placed inside a 10.8-cup SnapWare airtight container (Model #109842). […] After storage, fruits are evaluated for disease incidence (mm diameter of the rot) and pathogen sporulation (mm diameter) on the surface of the fruits for an additional three days at 21° C., with results summarized in Table 20.

[10] = Orange, 1 mg/L sublimed, three day treatment plus three days at 21° C.

## CC1=CC1 [Compound 1-MCP, 1-methylcyclopropene, reference compound]
Alternaria alternata [1]
  Color Score: 1.79
  Severity: 0.61
Alternaria alternata [2]
  Color Score: 1.50
  Severity: 0.18
Botrytis cinerea [3]
  Incidence (%): 33.3%
  Severity (0-4): 0.4
Alternaria alternata [4]
  Diameter of the rot (mm): 13.6 mm

## OB1OCc2ccccc21 [Compound B, 2-(hydroxymethyl)phenylboronic acid cyclic monoester]
Penicillium digitatum [5]; 1 mg/L, volatile fungicide
  in vivo antimicrobial control of P. digitatum: 100%
Penicillium digitatum [5]; [10]
  Sporulation (mm): 0.0 mm
  Water soaked lesion: 0.0 mm
Penicillium expansum; Apple
  Browning (mm): 2.3 mm
  Sporulation (mm): 0.2 mm
Penicillium expansum; Pear
  Browning (mm): 1.1 mm
  Sporulation (mm): 0.0 mm
Botrytis cinerea [6]; 1 mg/L, volatile fungicide on different hosts
  in vivo antimicrobial control of B. cinerea: 100%
Botrytis cinerea [6]; Blueberry
  Incidence (%): 0.0%
  Severity (0-4): 0.0
Botrytis cinerea [6]; Grape
  Incidence (%): 0.0%
  Severity (0-4): 0.0
Botrytis cinerea [6]; Strawberry
  Incidence (%): 0.0%
  Severity (0-4): 0.0
Botrytis cinerea [7]
  lowest rate with 100% control of Botrytis cinerea: 0.0078 mg/disk
Botrytis cinerea [8]; 0.005 mg/disk, 5 days at 21° C.
  Percent (%) Incidence of Botrytis cinerea on Strawberry (in vivo): 100%
Botrytis cinerea [8]; 0.01 mg/disk, 5 days at 21° C.
  Percent (%) Incidence of Botrytis cinerea on Strawberry (in vivo): 100%
Botrytis cinerea [8]; 0.02 mg/disk, 5 days at 21° C.
  Percent (%) Incidence of Botrytis cinerea on Strawberry (in vivo): 100%
Botrytis cinerea [8]; 0.04 mg/disk, 5 days at 21° C.
  Percent (%) Incidence of Botrytis cinerea on Strawberry (in vivo): 75%
Botrytis cinerea [8]; 0.08 mg/disk, 5 days at 21° C.
  Percent (%) Incidence of Botrytis cinerea on Strawberry (in vivo): 50%
Botrytis cinerea [8]; 0.16 mg/disk, 5 days at 21° C.
  Percent (%) Incidence of Botrytis cinerea on Strawberry (in vivo): 25%
Botrytis cinerea [8]; 0.32 mg/disk, 5 days at 21° C.
  Percent (%) Incidence of Botrytis cinerea on Strawberry (in vivo): 0%
Botrytis cinerea [8]; 0.64 mg/disk, 5 days at 21° C.
  Percent (%) Incidence of Botrytis cinerea on Strawberry (in vivo): 0%
Botrytis cinerea [8]; 1.25 mg/disk, 5 days at 21° C.
  Percent (%) Incidence of Botrytis cinerea on Strawberry (in vivo): 0%
Botrytis cinerea [8]; 2.5 mg/disk, 5 days at 21° C.
  Percent (%) Incidence of Botrytis cinerea on Strawberry (in vivo): 0%
Botrytis cinerea [8]; strawberry, 5 days at 21° C.
  lowest rate with 100% control of Botrytis cinerea: 0.32 mg/disk
Botrytis cinerea [8]; strawberry, any of the rates evaluated (2.5 to 0.005 mg/disk)
  appearance of phytotoxicity: no evidence of phytotoxicity
Penicillium digitatum [9]; 10 mg/L
  in vivo volatile inhibition of P. digitatum in orange: complete inhibition
Penicillium digitatum [9]; 0.4 mg/L, Day 0
  Sporulation (mm): 0.7 mm
  Water soaked lesions (mm): 5.7 mm
Penicillium digitatum [9]; 0.4 mg/L, Day 1
  Sporulation (mm): 1.4 mm
  Water soaked lesions (mm): 29.4 mm
Penicillium digitatum [9]; 0.4 mg/L, Day 2
  Sporulation (mm): 8.1 mm
  Water soaked lesions (mm): 49.3 mm
Penicillium digitatum [9]; 0.4 mg/L, Day 3
  Sporulation (mm): 27.2 mm
  Water soaked lesions (mm): 63.4 mm
Penicillium digitatum [9]; 2 mg/L, Day 0
  Sporulation (mm): 0 mm
  Water soaked lesions (mm): 0.5 mm
Penicillium digitatum [9]; 2 mg/L, Day 1
  Sporulation (mm): 0.3 mm
  Water soaked lesions (mm): 7.8 mm
Penicillium digitatum [9]; 2 mg/L, Day 2
  Sporulation (mm): 2.8 mm
  Water soaked lesions (mm): 30.7 mm
Penicillium digitatum [9]; 2 mg/L, Day 3
  Sporulation (mm): 5.7 mm
  Water soaked lesions (mm): 42.6 mm
Penicillium digitatum [9]; 10 mg/L, Day 0
  Sporulation (mm): 0 mm
  Water soaked lesions (mm): 0 mm
Penicillium digitatum [9]; 10 mg/L, Day 1
  Sporulation (mm): 0 mm
  Water soaked lesions (mm): 0 mm
Penicillium digitatum [9]; 10 mg/L, Day 2
  Sporulation (mm): 0 mm
  Water soaked lesions (mm): 0 mm
Penicillium digitatum [9]; 10 mg/L, Day 3
  Sporulation (mm): 0 mm
  Water soaked lesions (mm): 0.8 mm
Penicillium digitatum [9]; 50 mg/L, Day 0
  Sporulation (mm): 0 mm
  Water soaked lesions (mm): 0 mm
Penicillium digitatum [9]; 50 mg/L, Day 1
  Sporulation (mm): 0 mm
  Water soaked lesions (mm): 0 mm
Penicillium digitatum [9]; 50 mg/L, Day 2
  Sporulation (mm): 0 mm
  Water soaked lesions (mm): 0 mm
Penicillium digitatum [9]; 50 mg/L, Day 3
  Sporulation (mm): 0 mm
  Water soaked lesions (mm): 0 mm
